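All cell lines were grown in 96-well plates and treated with compound for 48 hours. Here, GI50 denotes the concentration required for 50% inhibition of growth.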 Calls of active or inactive are those of the source. Cut-off read from the data, not from the text of the source: active = GI50 up to about 1.1 µM and inactive = higher.

This is an account of results in ChEMBL document CHEMBL1201862, “PubChem BioAssay data set” (2004).

What all share (assay): growth of human tumour cells (NCI), 48 h
In experiment [1] the test system is CAKI-1.
Experiment [2] concerns EKVX.
Experiment [3] deals with Malme-3M.
Experiment [4] concerns UACC-62.
The subject of experiment [5] is IGROV-1.
Experiment [6] concerns NCI-H226.
For experiment [7], the system named is KM12.
In experiment [8] the test system is SW-620.
In experiment [9] the test system is NCI-H522.
For experiment [10], the system named is UO-31.
The subject of experiment [11] is SK-MEL-2.
In experiment [12] the test system is A549.
Experiment [13] deals with HT-29.
For experiment [14], the system named is OVCAR-4.
For experiment [15], the system named is HOP-92.
Experiment [16] has as its system A498.

Take `COc1ccc(/C=C/C(=O)c2sc(NC(=S)NC(=O)c3ccc(Cl)cc3)nc2C)cc1OC`: the GI50 in [1] is 75.9 µM (inactive); in experiment [2], 66.8 µM (inactive); in [3] it was 37.2 µM (inactive); in experiment [4] it was 18.4 µM (inactive); in experiment [5], 43.1 µM (inactive); in experiment [6] it was 37.2 µM (inactive). Further, the GI50 in [7] is 59.2 µM (inactive); in experiment [8], 55.7 µM (inactive); in experiment [9], > 10 µM (inactive); in experiment [10], 64 µM (inactive); in [11], 47.1 µM (inactive); in [12], 43 µM (inactive). The GI50 was 88.1 µM (inactive) in experiment [13] and 52.5 µM (inactive) in experiment [14].
On to `CCCC(=O)CC(C)C(=O)C(=O)NC12CC3CC(CC(C3)C1)C2` (stereo not drawn), for which the GI50 in [1], in [2], in experiment [3], in experiment [6], in experiment [7] and in [8] was > 100 µM (inactive) in each case. Besides, the GI50 in experiment [15] was 22.3 µM (inactive); in experiment [9], > 100 µM (inactive); in experiment [10], > 100 µM (inactive); in [11] it was > 100 µM (inactive); in experiment [12], > 100 µM (inactive); in [13], > 100 µM (inactive). In addition, the GI50 in experiment [14] is > 100 µM (inactive).
Consider `COc1cc(CNc2nc3ccc(C(F)(F)F)cc3nc2-c2ccccc2)cc(OC)c1OC`, for which the GI50 in [1] is 14.3 µM (inactive); in [2], 11.9 µM (inactive); in experiment [3], 29.6 µM (inactive); in experiment [4] it was 93.1 µM (inactive); in experiment [5] it was 67.3 µM (inactive); in experiment [7] it was 24.6 µM (inactive). Besides, the GI50 in experiment [8] was 21 µM (inactive); in experiment [9], 11.5 µM (inactive); in [10], 5.93 µM (inactive); in experiment [11] it was 20.9 µM (inactive); in experiment [12], 20 µM (inactive); in experiment [16], 38.2 µM (inactive). Further, the figures for the GI50 in [13] and in [14] were 32.9 µM (inactive) and 19.4 µM (inactive), respectively.
With `CC(=O)N1c2ccccc2C2=CC3C4C(=O)N(c5ccccc5)C(=O)C4C21C1C(=O)N(c2ccccc2)C(=O)C31` (stereo not drawn), the GI50 was 48.3 µM (inactive) in [1]; 99.5 µM (inactive) in experiment [3]; 30.6 µM (inactive) in experiment [4]; 75.7 µM (inactive) in experiment [5]; 35.6 µM (inactive) in experiment [7]; 31.2 µM (inactive) in experiment [8]. Also, the GI50 is > 100 µM (inactive) in [15]; 48.3 µM (inactive) in [10]; 17.3 µM (inactive) in experiment [11]; 32.4 µM (inactive) in experiment [12]; 74.5 µM (inactive) in experiment [16]; 36.9 µM (inactive) in experiment [13].
With `COc1ccc2c(c1)C(CCN)C(=O)N2` (stereo not drawn), the GI50 in [1], in experiment [2], in [3], in experiment [4], in experiment [5] and in experiment [7] was > 100 µM (inactive) each time. Also, the GI50 in experiment [8], in experiment [15], in experiment [11], in experiment [12], in experiment [16] and in experiment [13] was > 100 µM (inactive) throughout. In addition, the GI50 in experiment [14] is > 100 µM (inactive).
As to `CN1CC(=O)N2Cc3ccccc3-n3cccc3C2C1` (stereo not drawn), the GI50 in [1], in [2], in experiment [3], in experiment [4], in experiment [5] and in [7] was > 100 µM (inactive) throughout. The GI50 in experiment [8], in experiment [10], in [11], in experiment [12], in experiment [16] and in experiment [13] was > 100 µM (inactive) in each case. Besides, the GI50 in experiment [14] is > 100 µM (inactive).
For the compound `O=C1c2ccncc2C(=O)c2c(O)ccc(O)c21`, the GI50 in [1] was > 10 µM (inactive); in experiment [2], 18 µM (inactive); in experiment [3] it was 1.69 µM (inactive); in experiment [4], 3.12 µM (inactive); in experiment [5], 12.5 µM (inactive); in experiment [6] it was 15.7 µM (inactive). Moreover, the GI50 in experiment [7] is 6.07 µM (inactive); in experiment [8], 2.89 µM (inactive); in [15], 17.7 µM (inactive); in [10], 16.2 µM (inactive); in [11] it was 8.05 µM (inactive); in experiment [12], 5.48 µM (inactive). Also, the GI50 was 19 µM (inactive) in experiment [16], 3.07 µM (inactive) in experiment [13] and 11.1 µM (inactive) in [14].
Turning to `O=C(NCCCN1CCN(CCCNC(=O)c2cnc3ccccc3n2)CC1)c1cnc2ccccc2n1`, the GI50 was > 100 µM (inactive) in experiment [1]; > 100 µM (inactive) in experiment [2]; > 100 µM (inactive) in experiment [3]; > 100 µM (inactive) in experiment [4]; > 100 µM (inactive) in [5]; 86.5 µM (inactive) in experiment [6]. Further, the GI50 in [7] is > 100 µM (inactive); in experiment [8], > 100 µM (inactive); in [9], 90.8 µM (inactive); in experiment [10], > 100 µM (inactive); in [11], > 100 µM (inactive); in experiment [12] it was > 100 µM (inactive). Moreover, the GI50 in experiment [16] was 82 µM (inactive); in experiment [13], 88.3 µM (inactive); in [14], > 100 µM (inactive).
On to `COc1ccc(C(C#N)NNc2nc(C)cc(O)n2)cc1OC` (stereo not drawn), for which the GI50 in experiment [1], in experiment [3], in [4], in experiment [5], in [6] and in experiment [7] was > 100 µM (inactive) throughout. In addition, the GI50 in experiment [8], in [15], in experiment [9], in experiment [10], in experiment [11] and in [12] was > 100 µM (inactive) throughout. Moreover, the GI50 in experiment [13] and in experiment [14] was > 100 µM (inactive) in each case.
Consider `COc1cc2cc3c4c(cc(OC)c(OC)c4c2cc1OC)CCN3C(=O)CCC(=O)NCCCN(C)C`, for which the GI50 in experiment [1] is > 100 µM (inactive); in experiment [2] it was 72.1 µM (inactive); in experiment [3], 64.7 µM (inactive); in experiment [4], 47.6 µM (inactive); in experiment [5], > 100 µM (inactive); in experiment [6], 66.8 µM (inactive). The GI50 is 67.1 µM (inactive) in experiment [7]; 54 µM (inactive) in experiment [8]; 10 µM (inactive) in experiment [15]; 21.8 µM (inactive) in [9]; > 100 µM (inactive) in [10]; 20.1 µM (inactive) in experiment [11]. For the same compound, the GI50 was > 100 µM (inactive) in experiment [12], 22.6 µM (inactive) in experiment [13] and > 100 µM (inactive) in [14].
Turning to `COc1ccc(C2=C(Cl)c3cc(OC)c(OC)cc3C2Cl)cc1OC` (stereo not drawn), the GI50 is 14.7 µM (inactive) in [1]; 22.2 µM (inactive) in experiment [2]; 19.6 µM (inactive) in experiment [3]; 15.4 µM (inactive) in [4]; 20.9 µM (inactive) in experiment [5]; 15.2 µM (inactive) in experiment [8]. Also, the GI50 in [15] is 24.8 µM (inactive); in experiment [10] it was 16.3 µM (inactive); in [12] it was 19.5 µM (inactive); in [13] it was 16.3 µM (inactive); in experiment [14], 18.2 µM (inactive).
Take `CC(=O)OCC(OC(C)=O)C(OC(C)=O)C(OC(C)=O)C(=O)CNn1c(-c2ccccc2)nc2ccc(Br)cc2c1=O` (stereo not drawn): the GI50 was 87.5 µM (inactive) in experiment [1]; > 100 µM (inactive) in experiment [2]; > 100 µM (inactive) in [3]; 83.4 µM (inactive) in experiment [4]; > 100 µM (inactive) in experiment [6]; > 100 µM (inactive) in experiment [7]. Also, the GI50 is > 100 µM (inactive) in [8]; 46.8 µM (inactive) in [9]; > 100 µM (inactive) in [10]; > 100 µM (inactive) in experiment [11]; > 100 µM (inactive) in experiment [12]; > 100 µM (inactive) in experiment [16]. Also, the GI50 in [13] and in experiment [14] was > 100 µM (inactive) in each case.
In the case of `CC(=O)O[C@H]1CCC2[C@@H]3CCC4Nc5c(cnn5-c5ccccc5)C[C@]4(C)C3CC[C@@]21C` (stereo partly drawn), the GI50 in [1] was 3.2 µM (inactive); in experiment [2], 3.3 µM (inactive); in [3] it was 11.8 µM (inactive); in experiment [4], 10.4 µM (inactive); in experiment [5], 20.7 µM (inactive); in [6], 11.5 µM (inactive). In addition, the GI50 in experiment [7] was 17.7 µM (inactive); in experiment [8], 11.9 µM (inactive); in [9], 14.7 µM (inactive); in experiment [10] it was 11 µM (inactive); in [11] it was 17.1 µM (inactive); in experiment [12], 17.5 µM (inactive). The GI50 in experiment [16] is 30.5 µM (inactive); in experiment [13] it was 8.24 µM (inactive); in experiment [14] it was 21.4 µM (inactive).
As for `COc1cc(NS(C)(=O)=O)ccc1NCc1c2ccccc2nc2ccccc12`, the GI50 in experiment [1] is 21.7 µM (inactive); in [2], 42.6 µM (inactive); in [3] it was 31.5 µM (inactive); in [4], > 100 µM (inactive); in [5], 29.4 µM (inactive); in [6], > 100 µM (inactive). For the same compound, the GI50 in [7] is 7.66 µM (inactive); in experiment [8], 26.7 µM (inactive); in experiment [15], 17.3 µM (inactive); in [9], 24.3 µM (inactive); in experiment [10], 19.1 µM (inactive); in experiment [11] it was 44.4 µM (inactive). The GI50 was 67 µM (inactive) in [12], 31.6 µM (inactive) in [13] and 0.0571 µM (active) in [14].
